# Source: ChEMBL document CHEMBL1129658, “Syntheses and conformational analyses of glutamate analogs: 2-(2-carboxy-3-substituted-cyclopropyl)glycines as useful probes for excitatory amino acid receptors” (J Med Chem, 1996)
# Legend:
# [1] = pKa value by 1H NMR titration experiments; pK1; assay type: physicochemical
# [2] = pKa value by 1H NMR titration experiments; pK2; assay type: physicochemical
# Rattus norvegicus [3] = species: Rattus norvegicus; experiment: Depolarizing potency in new born rat spinal cord; assay type: functional
# [4] = pKa value by 1H NMR titration experiments; pK3; assay type: physicochemical
# Rattus norvegicus [5] = species: Rattus norvegicus; experiment: Compound was tested for the inhibition of spinal reflex evoked by electrical stimulation of the dorsal root of new born rat
# [6] = Compound was tested for the Inhibition of forskolin-stimulated cAMP formation in the cultured spinal neurons; details: Rattus norvegicus
pKa [1],pKa [2],pKa [4],IC50 [6] [nM],Structure (SMILES),Relative potency (Rattus norvegicus [3]),IC50 (Rattus norvegicus [5]) [nM]
2.3,4.2,10.2,,COC[C@H]1[C@H](C(=O)O)[C@H]1[C@H](N)C(=O)O,0.1,
2.1,4.3,10,,N[C@H](C(=O)O)[C@H]1C[C@H]1C(=O)O,,
2.2,4.2,9.5,,N[C@H](C(=O)O)[C@@H]1C[C@H]1C(=O)O,,
1.9,4.2,9.7,100,N[C@H](C(=O)O)[C@H]1C[C@@H]1C(=O)O,6,700
2.1,4,9.7,,COC[C@@H]1[C@H](C(=O)O)[C@H]1[C@H](N)C(=O)O,0.1,
2.2,4.7,9.6,,COC[C@H]1[C@H](C(=O)O)[C@@H]1[C@H](N)C(=O)O,50,
2,5.1,10.1,,COC[C@@H]1[C@H](C(=O)O)[C@@H]1[C@H](N)C(=O)O,25,
2.5,4.6,10,,N[C@H](C(=O)O)[C@@H]1C[C@@H]1C(=O)O,100,

Structure (SMILES),pKa [1],pKa [2],pKa [4],IC50 [6] [nM],Relative potency (Rattus norvegicus [3]),IC50 (Rattus norvegicus [5]) [nM]
C=C(C)[C@H]1CN[C@H](C(=O)O)[C@H]1CC(=O)O [KAINIC ACID],2.1,4.3,10.1,,100,
"Cc1onc(O)c1CC(N)C(=O)O [(R,S)-AMPA]",2.1,5.2,10.1,,,
N[C@@H](CCC(=O)O)C(=O)O [GLUTAMIC ACID],,,9.7,,1,
